Assay results reported in patent US8088733B2 (Tranzyme Pharma Inc., priority 2006, dated 2012).

What was measured:
[1] = tested on: fasted Wistar rats; assay: Gastric emptying of a phenol red-labelled methylcellulose meal in fasted naive rats (model for gastroparesis); format: in vivo, rat; details: for increase in gastric emptying relative to the vehicle control group: 15 min after meal; for potency in gastric emptying compared to metoclopramide, based on the different dose levels: dose-dependent, FIG. 2
Method: To examine the effects of compounds of the invention in a model for gastroparesis, compounds were evaluated for possible effects on gastric emptying in fasted rats as described below.
GHRP-6 and test samples were dissolved in vehicle of 9% HPBCD/0.9% NaCl. Immediately following oral administration of methylcellulose (2%) containing phenol red (0.05%) (2 mL/rat), test substances or vehicle (9% HPBCD/0.9% NaCl) were each administered intravenously (i.v.) at a dosing volume of 5 mL/kg.
Test substances were each administered intravenously to a group of 5 O/N-fasted Wistar derived male rats weighing 200±20 g immediately after methylcellulose (2%) containing phenol red (0.05%) was administered orally at 2 mL/animal. The animals were then sacrificed 15 minutes later. The stomach was immediately removed, homogenized in 0.1 N NaOH (5 mL) and centrifuged. Following protein precipitation by 20% trichloroacetic acid (0.5 mL) and re-alkalization of the supernatant with 0.1 N NaOH, total phenol red remaining in the stomach was determined by a colorimetric method at 560 nm. A 30 percent or more (≧30%) increase in gastric emptying, detected as the decrease in phenol red concentration in the stomach relative to the vehicle control group, is considered significant.
• 1. To ascertain data for representative compounds 25 and 298 as prokinetic agents with potent effects on gastric emptying, a model for gastroparesis. Methods • 1. Overnight-fasted rats (male, Wistar, ˜200 g, N=5/group) were given a meal of methylcellulose (2%) by intragastric gavage. The meal was labeled with phenol red (0.05%). • 2. […] Animals were sacrificed 15 minutes later; the stomach was immediately removed and homogenized in 0.1 N NaOH and centrifuged. • 4. Total phenol red remaining in the stomach was quantified by a colorimetric method at 560 nm. • 5. A >30% increase in gastric emptying, detected based on the phenol red concentration in comparison to the control group, is considered significant. Results

[2] = tested on: rats dosed with morphine; assay: Rat model of opioid-induced bowel dysfunction (morphine-delayed gastric emptying and small intestinal transit); format: in vivo; details: morphine 3 mg/kg s.c.
Excerpt: Opioid analgesics, such as morphine, are well known to delay gastrointestinal transit, which is a noted side effect for this class of drugs. (Greenwood-van Meerveld, B.; Gardner, C. J.; Little, P. J.; Hicks, G. A.; DeHaven-Hudkins, D. L. Preclinical studies of opioids and opioid antagonists on gastrointestinal function. Neurogastroenterol. Motil. 2004, 16, 46-53.) The clinical term for this syndrome is opioid-induced bowel dysfunction (OBD). The aim of this study was to determine whether test compounds can effectively reverse morphine-induced delayed gastric emptying and small intestinal transit in a rat model of opioid-induced bowel dysfunction.
• 1. Rats (male, Sprague-Dawley, 250-300 g, N=6-7/gp) were implanted with jugular vein catheters to accommodate dosing of test articles. • 2. Overnight-fasted rats were administered morphine by sub-cutaneous injection (3 mg/kg). • 3. After 60 minutes, rats were dosed (i.v. bolus) with vehicle, test compound (0.30, 1.0 mg/kg) or GHRP-6 (0.02 mg/kg) followed by intragastric gavage of ^99mTc methylcellulose (2%) meal. • 4. After 15 minutes, the rats were euthanized and the stomach and consecutive 10 cm segments of the intestine are isolated. Radioactivity (^99mTc) in each tissue isolate is measured as a means of measuring gastric emptying and small intestinal transit. • 5. One-way ANOVA, Dunnet's post-hoc statistical test was applied. • 6.
• 1. […] Methods • 1. Rats (male, Sprague-Dawley, 250-300 g) were implanted with jugular vein catheters to accommodate dosing of test articles. • 2. Overnight-fasted rats were administered morphine (3 mg/kg s.c.). • 3. […] After 15 min, the rats were euthanized and the stomach and consecutive 10 cm segments of the intestine are isolated. Radioactivity (^99mTc) in each tissue isolate was measured as a means of measuring the transit of the meal. • 5. Results

[3] = tested on: POI rats concurrently dosed with morphine; assay: Combination rat model of post-operative ileus and opioid-induced bowel dysfunction; format: in vivo
[4] = GHRP-6 0.02 mg/kg i.v., mean ± sem

For `CCC(C)[C@@H]1NCCOc2ccccc2CCCNC(=O)[C@@H](Cc2ccc(Cl)cc2)NC(=O)[C@@H](C)N(C)C1=O` (stereo partly drawn) [Compound 25], the gastric emptying ([1]; 30 μg/kg) was “significant gastric emptying”, the “increase in gastric emptying relative to the vehicle control group” value ([1]; 100 μg/kg i.v.) was 39% and the “potency in gastric emptying compared to metoclopramide, based on the different dose levels” value [1] was roughly 100 fold.

`CCN(CC)CCNC(=O)c1cc(Cl)c(N)cc1OC` [metoclopramide, reference compound] was tested, and the “increase in gastric emptying relative to the vehicle control group” value ([1]; 10 mg/kg i.v.) was 41%.

With `CN1CC[C@]23c4c5ccc(O)c4O[C@H]2[C@@H](O)C=C[C@H]3[C@H]1C5` [morphine] the “gastric emptying and small intestinal transit” value ([2]; preliminary study) was “significantly delayed”.

For GHRP-6, the “Geometric Center” value [2, 4] was 3.38 ± 0.76, the “Intragastric Residue (%)” value [2, 4] was 0.48 ± 0.10% and the “increase in gastric emptying relative to the vehicle control group” value ([1]; 20 μg/kg i.v.) was 40%.

In the case of `C[C@@H]1CN[C@@H](C2CC2)C(=O)N(C)[C@H](C)C(=O)N[C@H](Cc2ccc(F)cc2)C(=O)NCCCc2ccccc2O1` [Compound 298], the “potency in gastric emptying compared to metoclopramide, based on the different dose levels” value [1] is reported as roughly 100 fold, the gastric emptying ([3]; 0.1, 0.3, 1, 3 mg/kg i.v., FIG. 8) is reported as “significantly accelerates” and the small intestinal transit ([3]; 0.1, 0.3, 1, 3 mg/kg i.v., FIG. 9) is reported as “significantly accelerates”. For the same compound, the “lowest dose level effective at restoring GI motility” value ([3]; combination of POI and OBD) was 0.1 mg/kg.
